The source of these data is US10550105B2 (Ribon Therapeutics Inc., priority 2018, dated 2020).

In experiment [1] the target is PARP7 (Homo sapiens (Human), UniProt Q7Z3E1). Nature of the experiment: Inhibition of PARP7 (Table A-1). It is filed as biochemical. Conditions: comparison of separated isomers, see Table A-1.
Experiment [2] concerns KMRC-3. Nature of the experiment: Growth inhibition of cancer cell lines, 144 hours (CellTiter-Glo). Format: cell-based. Conditions: clear cell renal carcinoma. As to the method: (§1) Example C: Inhibition of Cancer Cell Growth by Treatment with PARP7 Inhibitors
(§2) Table A-2 and Table A-3 (below) represents the concentration that causes 50% growth inhibition (GI50) in a panel of cancer cell lines with Compound 18B and Compound 561. Cells were plated into 384-well plates at a pre-specified density in fetal bovine serum-containing media. Cells were treated with compound or vehicle (DMSO) 24 hrs later, and a day zero plate was collected for analysis. Test compound plates were incubated continuously for 72 hrs (Table A-2) or 144 hours (Table A-3) cell growth was assessed using a luminescent cell viability assay (CellTiter-Glo, Promega). The GI50was determined by correcting for the cell count at time zero (time of treatment) and plotting data as percent growth relative to vehicle-treated cells.

The test system of experiment [3] is TYK-nu. The description is as above. Conditions: high grade ovarian serious adenocarcinoma. It is filed as cell-based. The procedure: as §1, §2
The test system of experiment [4] is NCI-H1963. The experiment is described as above. It is filed as cell-based. Conditions: Homo sapiens, small cell lung carcinoma. The procedure:
as §1, §2

In experiment [5] the test system is HCC1954. The description is as above. It is filed as cell-based. Conditions: Homo sapiens, ductal breast carcinoma. The procedure: as §1, §2
In experiment [6] the test system is COLO 680N. Described as above. Conditions: Homo sapiens, esophageal squamous cell carcinoma. Format: cell-based. As to the method:
as §1, §2

Experiment [7] has as its system SCaBER. The experiment is described as above. It is filed as cell-based. Conditions: Homo sapiens, bladder squamous cell carcinoma. As to the method: as §1, §2
Experiment [8] has as its system MSTO-211H. The description is as above. It is filed as cell-based. Conditions: Homo sapiens, biphasic mesothelioma. As to the method: as §1, §2
Experiment [9] concerns NCI-H2009. The experiment is described as above. Conditions: Homo sapiens, lung adenocarcinoma. Format: cell-based. As to the method: as §1, §2
The test system of experiment [10] is NCI-H1930. Described as above. It is filed as cell-based. Conditions: Homo sapiens, small cell lung carcinoma. The procedure:
as §1, §2

In experiment [11] the test system is Caki-1. The description is as above. It is filed as cell-based. Conditions: Homo sapiens, clear cell renal cell carcinoma. The procedure: as §1, §2
Experiment [12] has as its system NCI-H2347. The description is as above. Conditions: Homo sapiens, lung adenocarcinoma. Format: cell-based. The procedure:
as §1, §2

Experiment [13] deals with IA-LM. The description is as above. Conditions: large cell lung carcinoma. Format: cell-based. The procedure:
as §1, §2

In experiment [14] the test system is EBC-1. The description is as above. Format: cell-based. Conditions: Homo sapiens, squamous cell lung carcinoma. As to the method:
as §1, §2

The test system of experiment [15] is AGS. The description is as above. Format: cell-based. Conditions: Homo sapiens, gastric adenocarcinoma. As to the method: as §1, §2
Experiment [16] deals with SK-MEL-2. The description is as above. Conditions: Homo sapiens, malignant melanoma. It is filed as cell-based. The procedure:
as §1, §2

The test system of experiment [17] is YD-10B. The description is as above. Conditions: tongue squamous cell carcinoma. It is filed as cell-based. As to the method: as §1, §2
Experiment [18] relates to HCC827. The description is as above. It is filed as cell-based. Conditions: Homo sapiens, lung adenocarcinoma. The procedure:
as §1, §2

Experiment [19] concerns NCI-H1648. The experiment is described as above. Format: cell-based. Conditions: Homo sapiens, lung adenocarcinoma. The procedure: as §1, §2
The test system of experiment [20] is SK-LU-1. The experiment is described as above. It is filed as cell-based. Conditions: Homo sapiens, lung adenocarcinoma. As to the method: as §1, §2
Experiment [21] relates to LN-18. The description is as above. Conditions: Homo sapiens, glioblastoma. It is filed as cell-based. The procedure:
as §1, §2

The test system of experiment [22] is SW900. Described as above. It is filed as cell-based. Conditions: Homo sapiens, squamous cell lung carcinoma. The procedure: as §1, §2
Experiment [23] has as its system NUGC-3. The description is as above. It is filed as cell-based. Conditions: Homo sapiens, gastric adenocarcinoma. The procedure:
as §1, §2

Experiment [24] relates to GCT. The description is as above. Format: cell-based. Conditions: Homo sapiens, undifferentiated pleiomorphic sarcoma. The procedure:
as §1, §2

Experiment [25] concerns TE-11. Described as above. It is filed as cell-based. Conditions: Homo sapiens, esophageal squamous cell carcinoma. The procedure: as §1, §2
Experiment [26] deals with NCI-H2087. Described as above. It is filed as cell-based. Conditions: Homo sapiens, lung adenocarcinoma. The procedure: as §1, §2
Experiment [27] has as its system KALS-1. The description is as above. Format: cell-based. Conditions: Homo sapiens, glioblastoma. The procedure:
as §1, §2

Experiment [28] concerns A101D. The description is as above. It is filed as cell-based. Conditions: Homo sapiens, melanoma. As to the method: as §1, §2
Experiment [29] has as its system TUHR10TKB. The description is as above. Format: cell-based. Conditions: renal cell carcinoma. The procedure:
as §1, §2

Experiment [30] relates to SK-MES-1. The description is as above. Format: cell-based. Conditions: Homo sapiens, squamous cell lung carcinoma. As to the method: as §1, §2
The test system of experiment [31] is SNU-840. The experiment is described as above. Conditions: malignant ovarian Brenner tumor. Format: cell-based. As to the method:
as §1, §2

Experiment [32] deals with KMBC-2. Described as above. It is filed as cell-based. Conditions: bladder carcinoma. The procedure: as §1, §2
The test system of experiment [33] is SCC-25. The description is as above. It is filed as cell-based. Conditions: Homo sapiens, tongue squamous cell carcinoma. As to the method: as §1, §2
Experiment [34] has as its system NCI-H2066. Described as above. It is filed as cell-based. Conditions: squamous cell lung carcinoma. The procedure:
as §1, §2

In experiment [35] the test system is HPAF-II. The description is as above. Format: cell-based. Conditions: Homo sapiens, pancreatic adenocarcinoma. The procedure: as §1, §2
For experiment [36], the system named is NCI-H1437. The experiment is described as above. Conditions: Homo sapiens, lung adenocarcinoma. Format: cell-based. As to the method: as §1, §2
The subject of experiment [37] is CAL-27. The description is as above. Format: cell-based. Conditions: Homo sapiens, tongue squamous cell carcinoma. The procedure:
as §1, §2

The subject of experiment [38] is MCAS. Described as above. Format: cell-based. Conditions: ovarian mucinous cystadenocarcinoma. As to the method:
as §1, §2

Experiment [39] concerns H4. The description is as above. Format: cell-based. Conditions: neuroglioma. As to the method: as §1, §2
Experiment [40] has as its system COR-L105. The experiment is described as above. Format: cell-based. Conditions: Homo sapiens, lung adenocarcinoma. As to the method: as §1, §2
Experiment [41] deals with NCI-H441. The description is as above. Format: cell-based. Conditions: Homo sapiens, papillary adenocarcinoma of the lung. As to the method: as §1, §2
Experiment [42] has as its system CFPAC-1. The description is as above. Format: cell-based. Conditions: Homo sapiens, pancreatic ductal adenocarcinoma. The procedure: as §1, §2
Experiment [43] concerns NCI-H647. The experiment is described as above. It is filed as cell-based. Conditions: Homo sapiens, lung adenosquamous carcinoma. As to the method:
as §1, §2

The test system of experiment [44] is ACC-MESO-1. The experiment is described as above. It is filed as cell-based. Conditions: mesothelioma. The procedure: as §1, §2
Experiment [45] deals with NCI-H2444. The description is as above. Format: cell-based. Conditions: Homo sapiens, non-small cell lung carcinoma. As to the method: as §1, §2

Sequence of PARP7 (Q7Z3E1 whole entry): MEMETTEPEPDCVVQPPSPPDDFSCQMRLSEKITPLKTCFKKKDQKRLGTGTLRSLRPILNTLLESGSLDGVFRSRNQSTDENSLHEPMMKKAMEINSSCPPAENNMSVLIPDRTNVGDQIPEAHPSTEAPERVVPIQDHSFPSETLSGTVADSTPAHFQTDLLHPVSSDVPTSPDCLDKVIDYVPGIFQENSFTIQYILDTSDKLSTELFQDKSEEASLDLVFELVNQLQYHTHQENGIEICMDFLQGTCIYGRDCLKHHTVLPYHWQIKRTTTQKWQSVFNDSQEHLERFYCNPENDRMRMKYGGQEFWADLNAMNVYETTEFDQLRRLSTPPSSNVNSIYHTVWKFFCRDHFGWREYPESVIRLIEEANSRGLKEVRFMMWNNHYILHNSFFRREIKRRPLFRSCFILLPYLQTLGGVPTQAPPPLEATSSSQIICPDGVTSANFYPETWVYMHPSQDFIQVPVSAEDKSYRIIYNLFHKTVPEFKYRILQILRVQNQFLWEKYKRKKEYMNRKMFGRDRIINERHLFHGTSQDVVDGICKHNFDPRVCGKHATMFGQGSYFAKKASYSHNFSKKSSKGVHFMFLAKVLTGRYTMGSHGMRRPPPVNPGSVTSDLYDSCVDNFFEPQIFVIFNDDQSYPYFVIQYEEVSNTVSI

On to `N#Cc1ccc(N2CCN(C(=O)c3cccc(OC[C@@H]4c5ccccc5CN4c4cn[nH]c(=O)c4C(F)(F)F)c3)CC2)nc1` (single isomer, unassigned) [Example 18 Isomer B], for which the “relative potency of the enantiomers / diastereomers” value in [1] was “more potent enantiomer”.
Take `C[C@@H](COCCC(=O)N1CCN(c2ncc(C(F)(F)F)cn2)CC1)Nc1cn[nH]c(=O)c1C(F)(F)F` [Example 561, 5-[[(2S)-1-(3-oxo-3-[4-[5-(trifluoromethyl)pyrimidin-2-yl]piperazin-1-yl]propoxy)propan-2-yl]amino]-4-(trifluoromethyl)-2,3-dihydropyridazin-3-one]: the GI50 in [2] was ≥ 1000 nM; in experiment [3], < 100 nM; in [4], ≥ 1000 nM; in experiment [5] it was ≥ 1000 nM; in experiment [6] it was ≥ 1000 nM; in experiment [7], ≥ 1000 nM. The concentration for 50% growth inhibition (GI50) in [8] was ≥ 1000 nM; in [9], ≥ 1000 nM; in [10] it was ≥ 1000 nM; in experiment [11] it was < 100 nM; in experiment [12] it was < 100 nM; in experiment [13], < 100 nM. Further, the GI50 in experiment [14] is < 100 nM; in experiment [15], ≥ 1000 nM; in experiment [16], ≥ 1000 nM; in [17], ≥ 1000 nM; in [18], < 100 nM; in experiment [19] it was ≥ 1000 nM. Also, the GI50 was ≥ 1000 nM in experiment [20]; ≥ 1000 nM in [21]; 100 to 1000 nM in [22]; ≥ 1000 nM in experiment [23]; < 100 nM in [24]; ≥ 1000 nM in [25]. The GI50 is ≥ 1000 nM in [26]; ≥ 1000 nM in experiment [27]; ≥ 1000 nM in [28]; < 100 nM in experiment [29]; ≥ 1000 nM in experiment [30]; ≥ 1000 nM in experiment [31]. The 50% growth inhibitory concentration (GI50) was ≥ 1000 nM in experiment [32]; < 100 nM in experiment [33]; ≥ 1000 nM in experiment [34]; ≥ 1000 nM in experiment [35]; ≥ 1000 nM in experiment [36]; ≥ 1000 nM in [37]. Besides, the GI50 in experiment [38] was ≥ 1000 nM; in [39], ≥ 1000 nM; in experiment [40] it was 100 to 1000 nM; in [41], ≥ 1000 nM; in [42] it was 100 to 1000 nM; in experiment [43], < 100 nM. The GI50 in experiment [44] and in experiment [45] was ≥ 1000 nM each time.
